These molecules were tested against Recombinant human JAK2 catalytic domain (Homo sapiens (Human), UniProt O60674) (assay: JAK2 kinase assay (Z'-LYTE, Tyr 6 Peptide)). Settings: read-out: IC50 in JAK2 kinase assay.
Type: biochemical
Experimental: JAK1/2/3 kinase assay are performed in vitro using Kit-Tyr 6 Peptide (Invitrogen, Cat. No. PV4122). TYK2 kinase assay are performed in vitro using Z′-LYTE™ Kinase Assay Kit-Tyr 3 Peptide (Invitrogen, Cat. No. PV3192). […] All compounds are initially tested at 8 different concentrations (1 μM down to 0.0003 μM) using a 1:3 serial dilution scheme.

Recombinant human JAK2 catalytic domain, sequence (O60674 849-1124): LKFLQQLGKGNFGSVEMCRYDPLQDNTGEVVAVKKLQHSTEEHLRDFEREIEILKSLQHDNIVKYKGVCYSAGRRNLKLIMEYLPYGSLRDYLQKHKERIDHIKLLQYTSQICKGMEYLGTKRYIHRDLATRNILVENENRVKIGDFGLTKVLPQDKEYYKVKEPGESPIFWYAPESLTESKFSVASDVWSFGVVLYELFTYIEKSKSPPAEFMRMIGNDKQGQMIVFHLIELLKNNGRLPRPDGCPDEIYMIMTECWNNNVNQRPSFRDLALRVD

SMILES	IC50 [nM]
C#CCN(c1ccc(S(C)(=O)=O)cn1)[C@@H]1CCN(c2ncnc3[nH]ccc23)C1 [Compound 58]	100 to 1000
CN(c1ccc(C(=O)NC(CO)c2ccccc2Cl)cc1F)[C@@H]1CCN(c2ncnc3[nH]ccc23)C1 (some centres unmarked) [Compound 207]	100 to 1000
CN(c1ncc(C#N)cc1F)[C@@H]1CCN(c2ncnc3[nH]ccc23)C1 [Compound 158]	100 to 1000
C#CCN(C1CCOC1)[C@@H]1CCN(c2ncnc3[nH]ccc23)C1 (some centres unmarked) [Compound 56]	100 to 1000
Cc1cc(N(C)[C@@H]2CCN(c3ncnc4[nH]ccc34)C2)nc(Cl)c1C#N [Compound 72]	100 to 1000
CN(c1ccc(C(=O)Nc2cccc(Cl)c2)cc1F)[C@@H]1CCN(c2ncnc3[nH]ccc23)C1 [Compound 185]	1 to 100
CN([C@@H]1CCN(c2ncnc3[nH]ccc23)C1)S(=O)(=O)c1cccc(C#N)c1 [Compound 10]	100 to 1000
CCOc1cnc(N(C)[C@@H]2CCN(c3ncnc4[nH]ccc34)C2)cn1 [Compound 136]	100 to 1000
N#Cc1ccc2c(c1)CCN2C1CCN(c2ncnc3[nH]ccc23)C1 (centres unmarked) [Compound 46]	1 to 100
N#CCN(C1CC1)[C@@H]1CCN(c2ncnc3[nH]ccc23)C1 [Compound 55]	100 to 1000
CN(c1ccc(C(=O)NC(CO)c2ccc(Cl)cc2)cc1F)[C@@H]1CCN(c2ncnc3[nH]ccc23)C1 (some centres unmarked) [Compound 201]	1 to 100
CN(c1ccc(NS(=O)(=O)c2ccc(F)cc2)cn1)[C@@H]1CCN(c2ncnc3[nH]ccc23)C1 [Compound 212]	1 to 100
CN(c1ccc(Cl)nn1)[C@@H]1CCN(c2ncnc3[nH]ccc23)C1 [Compound 85]	100 to 1000
CN(c1ccc(C#N)cc1Br)[C@@H]1CCN(c2ncnc3[nH]ccc23)C1 [Compound 115]	100 to 1000
CN(C1CCCC1)[C@@H]1CCN(c2ncnc3[nH]ccc23)C1 [Compound 53]	100 to 1000
CN(c1ccc2nn[nH]c2n1)[C@@H]1CCN(c2ncnc3[nH]ccc23)C1 [Compound 167, (R)—N-(1-(7H-pyrrolo[2,3-d]pyrimidin-4-yl)pyrrolidin-3-yl)-N-methyl-3H-[1,2,3]triazolo[4,5-b]pyridin-5-amine]	100 to 1000
CN(c1ccc(C#N)c(Cl)n1)[C@@H]1CCN(c2ncnc3[nH]ccc23)C1 [Compound 90]	100 to 1000
CN(c1ccc(C(=O)O)cn1)[C@@H]1CCN(c2ncnc3[nH]ccc23)C1 [Compound 170, (R)-6-((1-(7H-pyrrolo[2,3-d]pyrimidin-4-yl)pyrrolidin-3-yl)(methyl)amino)nicotinic acid]	100 to 1000
CN(c1c(F)cc(C#N)cc1F)[C@@H]1CCN(c2ncnc3[nH]ccc23)C1 [Compound 108]	100 to 1000
CN(c1ncc(C#N)cc1Cl)[C@@H]1CCN(c2ncnc3[nH]ccc23)C1 [Compound 83]	100 to 1000
CN(C(=O)C1(C#N)CC1)[C@@H]1CCN(c2ncnc3[nH]ccc23)C1 [Compound 6]	100 to 1000
CC(C)S(=O)(=O)N(C)[C@@H]1CCN(c2ncnc3[nH]ccc23)C1 [Compound 49]	100 to 1000
CN(c1ccc(-c2cccs2)cn1)[C@@H]1CCN(c2ncnc3[nH]ccc23)C1 [Compound 147]	100 to 1000
CN(c1ccc(-c2nn[nH]n2)cn1)[C@@H]1CCN(c2ncnc3[nH]ccc23)C1 [Compound 160, (R)—N-(1-(7H-pyrrolo[2,3-d]pyrimidin-4-yl)pyrrolidin-3-yl)-N-methyl-5-(2H-tetrazol-5-yl)pyridin-2-amine]	100 to 1000
CN(c1ccc(C(=O)N[C@@H](CO)c2ccccc2)cc1F)[C@@H]1CCN(c2ncnc3[nH]ccc23)C1 [Compound 179]	1 to 100
Cc1cc(N(C)[C@@H]2CCN(c3ncnc4[nH]ccc34)C2)ncc1C#N [Compound 157]	1 to 100
C#CCN(c1ccc(C#N)cc1F)[C@@H]1CCN(c2ncnc3[nH]ccc23)C1 [Compound 130]	100 to 1000
CCCC(=O)N(C)[C@@H]1CCN(c2ncnc3[nH]ccc23)C1 [Compound 3]	100 to 1000
CN([C@@H]1CCN(c2ncnc3[nH]ccc23)C1)S(=O)(=O)c1cccc([N+](=O)[O-])c1 [Compound 12]	100 to 1000

Source: US9346810B2, “Pyrrolopyrimidine compounds and uses thereof” (HUTCHISON MEDIPHARMA LIMITED, priority 2010, dated 2016)
